Assays:
ITK = ITK (Homo sapiens (Human), UniProt Q08881); test: Radioisotope filter binding assay; type: biochemical; details: read-out: IC50 Activity Levels Against Representative TEC Family Kinases: ITK
Method in brief: (§1)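 Filter-binding radiometric kinase assay: 20 min compound–enzyme preincubation, then 2 h at room temperature with 33P-gamma-ATP, in Hepes pH 7.5 buffer containing Brij35, BSA, vanadate, DTT and 1% DMSO.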

CSK [1] = target: T1, CSK (Homo sapiens (Human), UniProt P41240); test: Radioisotope filter binding assay; type: biochemical; details: read-out: IC50 Activity Levels Against SRC Family Kinases: CSK
Method in brief: as §1

BLK = BLK (Homo sapiens (Human), UniProt P51451); test: Rabbit reticulocyte lysate assay (KinaseSeeker competition binding); details: read-out: IC50 Activity Levels Against SRC Family Kinases: BLK
SRC = SRC (Homo sapiens (Human), UniProt P12931); test: as above; details: read-out: IC50 Activity Levels Against SRC Family Kinases: SRC
LCK = LCK (Homo sapiens (Human), UniProt P06239); test: as above; details: read-out: IC50 Activity Levels Against SRC Family Kinases: LCK
LYN = LYN (Homo sapiens (Human), UniProt P07948); test: as above; details: at 1 μM
CSK [2] = target: T1, CSK; test: as above; details: at 1 μM
MEK3 = MEK3 (Homo sapiens (Human), UniProt P46734); test: KINOMEscan competition binding assay (Kd); details: read-out: Kd Values Against MEK Kinases Isoforms: MEK3
ERK2 = ERK2 (Homo sapiens (Human), UniProt P28482); test: KINOMEscan competition binding assay (Kd); details: read-out: Kd Values Against MAPK Pathway Kinases: ERK2
MEK4 = MEK4 (Homo sapiens (Human), UniProt P45985); test: KINOMEscan competition binding assay (Kd); details: read-out: Kd Values Against MEK Kinases Isoforms: MEK4
MEK2 = MEK2 (Homo sapiens (Human), UniProt P36507); test: KINOMEscan competition binding assay (Kd); details: read-out: Kd Values Against MEK Kinases Isoforms: MEK2
BRAF (V600E) = BRAF (V600E) (Homo sapiens (Human), UniProt P15056, V600E); test: KINOMEscan competition binding assay (Kd); details: read-out: Kd Values Against MAPK Pathway Kinases: BRAF (V600E)
ERK1 = ERK1 (Homo sapiens (Human), UniProt P27361); test: KINOMEscan competition binding assay (Kd); details: read-out: Kd Values Against MAPK Pathway Kinases: ERK1
ERK1, sequence (P27361 whole entry): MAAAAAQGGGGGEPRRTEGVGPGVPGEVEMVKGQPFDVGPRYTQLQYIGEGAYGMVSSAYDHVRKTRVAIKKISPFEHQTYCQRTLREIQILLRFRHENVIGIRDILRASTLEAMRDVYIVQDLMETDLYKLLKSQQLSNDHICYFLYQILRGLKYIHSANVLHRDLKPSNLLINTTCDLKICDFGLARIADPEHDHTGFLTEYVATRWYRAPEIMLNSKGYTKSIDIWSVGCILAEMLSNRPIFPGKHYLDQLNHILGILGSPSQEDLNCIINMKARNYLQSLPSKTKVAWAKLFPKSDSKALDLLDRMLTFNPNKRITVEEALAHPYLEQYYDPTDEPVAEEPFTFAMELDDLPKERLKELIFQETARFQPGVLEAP

T1 sequence (P41240 whole entry): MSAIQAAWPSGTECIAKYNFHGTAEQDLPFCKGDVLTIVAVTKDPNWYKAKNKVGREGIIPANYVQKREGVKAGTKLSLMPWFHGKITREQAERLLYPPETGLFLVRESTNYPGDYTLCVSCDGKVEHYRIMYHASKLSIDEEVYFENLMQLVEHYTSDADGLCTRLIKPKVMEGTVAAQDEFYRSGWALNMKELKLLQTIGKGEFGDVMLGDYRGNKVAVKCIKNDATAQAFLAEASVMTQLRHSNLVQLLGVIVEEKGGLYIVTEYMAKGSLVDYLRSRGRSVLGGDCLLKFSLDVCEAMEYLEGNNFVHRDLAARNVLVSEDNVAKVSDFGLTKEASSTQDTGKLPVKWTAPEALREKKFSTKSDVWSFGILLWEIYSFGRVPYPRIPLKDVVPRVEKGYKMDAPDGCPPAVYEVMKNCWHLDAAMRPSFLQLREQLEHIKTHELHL
BLK, sequence (P51451 whole entry): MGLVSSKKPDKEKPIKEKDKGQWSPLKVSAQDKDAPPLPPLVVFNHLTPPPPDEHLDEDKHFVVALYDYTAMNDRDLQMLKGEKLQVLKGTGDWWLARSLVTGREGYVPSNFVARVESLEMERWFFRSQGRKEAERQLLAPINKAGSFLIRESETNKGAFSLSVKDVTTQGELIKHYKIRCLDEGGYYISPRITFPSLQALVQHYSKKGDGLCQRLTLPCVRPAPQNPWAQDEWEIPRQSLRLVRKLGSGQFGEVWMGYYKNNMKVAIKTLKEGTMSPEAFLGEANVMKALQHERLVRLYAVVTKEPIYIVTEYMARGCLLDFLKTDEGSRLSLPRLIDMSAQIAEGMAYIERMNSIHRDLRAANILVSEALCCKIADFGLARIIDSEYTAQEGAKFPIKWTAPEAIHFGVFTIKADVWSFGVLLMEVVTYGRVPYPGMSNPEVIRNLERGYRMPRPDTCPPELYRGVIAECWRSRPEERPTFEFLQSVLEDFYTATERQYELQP
MEK2, sequence (P36507 whole entry, canonical isoform): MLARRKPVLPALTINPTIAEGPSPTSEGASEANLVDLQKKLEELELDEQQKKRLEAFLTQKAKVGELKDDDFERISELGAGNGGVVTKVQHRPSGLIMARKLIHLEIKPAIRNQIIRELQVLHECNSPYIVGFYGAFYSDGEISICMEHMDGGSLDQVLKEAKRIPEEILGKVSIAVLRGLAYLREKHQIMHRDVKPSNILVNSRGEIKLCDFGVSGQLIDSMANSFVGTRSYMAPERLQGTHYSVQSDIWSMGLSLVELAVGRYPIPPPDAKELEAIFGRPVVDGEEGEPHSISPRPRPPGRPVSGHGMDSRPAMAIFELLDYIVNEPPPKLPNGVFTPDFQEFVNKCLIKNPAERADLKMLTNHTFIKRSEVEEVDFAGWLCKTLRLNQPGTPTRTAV
MEK4, sequence (P45985 whole entry, canonical isoform): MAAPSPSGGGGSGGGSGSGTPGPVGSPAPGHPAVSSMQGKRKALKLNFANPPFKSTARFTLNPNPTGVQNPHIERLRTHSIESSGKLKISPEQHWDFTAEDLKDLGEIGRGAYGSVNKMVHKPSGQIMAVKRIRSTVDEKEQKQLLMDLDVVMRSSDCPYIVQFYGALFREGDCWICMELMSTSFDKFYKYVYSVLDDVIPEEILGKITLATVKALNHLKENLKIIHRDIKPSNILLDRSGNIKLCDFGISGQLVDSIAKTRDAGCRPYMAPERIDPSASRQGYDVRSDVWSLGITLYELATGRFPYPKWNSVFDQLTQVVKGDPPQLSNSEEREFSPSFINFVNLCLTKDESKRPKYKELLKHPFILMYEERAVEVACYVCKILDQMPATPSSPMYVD
LYN, sequence (P07948 whole entry): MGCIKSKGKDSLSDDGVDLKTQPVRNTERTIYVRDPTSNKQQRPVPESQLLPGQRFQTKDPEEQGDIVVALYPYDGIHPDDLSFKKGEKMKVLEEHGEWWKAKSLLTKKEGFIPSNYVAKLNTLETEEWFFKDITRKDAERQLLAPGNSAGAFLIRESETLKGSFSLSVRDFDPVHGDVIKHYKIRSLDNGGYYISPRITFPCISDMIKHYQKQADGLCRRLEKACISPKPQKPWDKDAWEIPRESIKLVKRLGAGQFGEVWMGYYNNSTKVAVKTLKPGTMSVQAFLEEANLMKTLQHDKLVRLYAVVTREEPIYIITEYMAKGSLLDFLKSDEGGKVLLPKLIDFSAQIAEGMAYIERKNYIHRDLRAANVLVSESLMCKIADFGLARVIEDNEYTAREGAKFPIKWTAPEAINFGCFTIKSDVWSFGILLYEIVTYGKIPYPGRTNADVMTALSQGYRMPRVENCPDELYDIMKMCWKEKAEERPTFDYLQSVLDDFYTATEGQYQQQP
SRC, sequence (P12931 whole entry, looked up): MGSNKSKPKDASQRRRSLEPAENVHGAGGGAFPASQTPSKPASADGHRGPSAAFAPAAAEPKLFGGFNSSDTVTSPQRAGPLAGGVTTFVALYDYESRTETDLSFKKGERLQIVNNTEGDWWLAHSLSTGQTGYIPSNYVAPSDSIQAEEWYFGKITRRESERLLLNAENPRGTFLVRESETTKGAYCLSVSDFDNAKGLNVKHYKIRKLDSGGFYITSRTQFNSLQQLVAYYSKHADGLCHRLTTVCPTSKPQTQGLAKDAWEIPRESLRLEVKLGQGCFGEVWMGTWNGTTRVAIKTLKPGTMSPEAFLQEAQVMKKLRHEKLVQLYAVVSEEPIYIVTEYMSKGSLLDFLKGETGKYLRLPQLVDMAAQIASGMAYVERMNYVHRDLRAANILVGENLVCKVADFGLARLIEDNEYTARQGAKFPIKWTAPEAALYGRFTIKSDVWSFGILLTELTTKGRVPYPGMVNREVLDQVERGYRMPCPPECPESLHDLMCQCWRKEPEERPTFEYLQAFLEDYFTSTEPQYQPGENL
MEK3, sequence (P46734 whole entry, canonical isoform): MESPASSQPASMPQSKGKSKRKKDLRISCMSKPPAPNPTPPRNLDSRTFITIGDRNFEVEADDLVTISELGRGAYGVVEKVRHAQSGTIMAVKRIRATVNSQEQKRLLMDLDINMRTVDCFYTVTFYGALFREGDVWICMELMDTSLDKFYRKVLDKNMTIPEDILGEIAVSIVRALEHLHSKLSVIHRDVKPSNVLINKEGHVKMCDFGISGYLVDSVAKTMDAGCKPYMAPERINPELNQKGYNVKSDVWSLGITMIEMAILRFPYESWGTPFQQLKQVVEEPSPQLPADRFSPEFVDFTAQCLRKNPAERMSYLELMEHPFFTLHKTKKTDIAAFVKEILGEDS
ITK, sequence (Q08881 whole entry): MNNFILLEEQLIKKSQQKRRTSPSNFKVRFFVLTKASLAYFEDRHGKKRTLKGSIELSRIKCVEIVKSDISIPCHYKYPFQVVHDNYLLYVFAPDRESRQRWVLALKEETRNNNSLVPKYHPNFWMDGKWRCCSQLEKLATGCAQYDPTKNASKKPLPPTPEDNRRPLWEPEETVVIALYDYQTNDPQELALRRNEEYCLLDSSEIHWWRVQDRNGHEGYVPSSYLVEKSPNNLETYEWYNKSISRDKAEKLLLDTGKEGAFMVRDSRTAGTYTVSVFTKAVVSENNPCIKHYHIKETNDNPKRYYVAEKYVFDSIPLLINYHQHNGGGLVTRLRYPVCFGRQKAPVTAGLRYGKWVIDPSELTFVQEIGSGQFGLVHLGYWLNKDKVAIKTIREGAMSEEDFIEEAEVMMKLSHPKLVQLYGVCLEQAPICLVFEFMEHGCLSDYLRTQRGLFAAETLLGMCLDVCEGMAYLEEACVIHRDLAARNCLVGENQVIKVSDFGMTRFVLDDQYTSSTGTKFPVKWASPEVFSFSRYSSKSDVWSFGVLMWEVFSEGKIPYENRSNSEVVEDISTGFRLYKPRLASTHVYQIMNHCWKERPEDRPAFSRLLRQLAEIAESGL
LCK, sequence (P06239 whole entry): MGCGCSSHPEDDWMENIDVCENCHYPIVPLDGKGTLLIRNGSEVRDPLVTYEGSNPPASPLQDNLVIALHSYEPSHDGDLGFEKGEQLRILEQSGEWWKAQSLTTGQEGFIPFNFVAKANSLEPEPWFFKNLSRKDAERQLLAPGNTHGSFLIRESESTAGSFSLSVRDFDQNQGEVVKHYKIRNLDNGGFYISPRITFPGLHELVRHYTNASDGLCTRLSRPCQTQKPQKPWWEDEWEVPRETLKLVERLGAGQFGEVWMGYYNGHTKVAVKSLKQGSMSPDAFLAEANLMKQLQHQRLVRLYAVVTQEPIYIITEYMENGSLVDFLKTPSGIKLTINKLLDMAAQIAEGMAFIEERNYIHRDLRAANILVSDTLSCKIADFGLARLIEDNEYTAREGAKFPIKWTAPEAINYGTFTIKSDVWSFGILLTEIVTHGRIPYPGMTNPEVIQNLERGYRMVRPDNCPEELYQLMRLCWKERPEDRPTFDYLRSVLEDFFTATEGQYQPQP

`Nc1ncnc2c1c(-c1ccc(Oc3ccccc3)cc1)nn2C[C@H]1SSC[C@@H]1O` [43 B.] showed an IC50 (ITK) of 1000 to 10000 nM, an IC50 (CSK [1]) of 5 to 99 nM and an IC50 (BLK) of 100 to 999 nM. For the same compound, the IC50 (SRC) was 100 to 999 nM, the IC50 (LCK) was 100 to 999 nM and the “% Inhibition Against SRC Family Kinases: LYN” value (LYN) was 57%. The “% Inhibition Against SRC Family Kinases: CSK” value (CSK [2]) was 70%.

Work on `Nc1ncnc2c1c(-c1ccc(Oc3ccccc3)cc1)nn2C[C@H]1SSC[C@H]1O` [46 B.] yielded a Kd (MEK3) of 1000 to 10000 nM, a Kd (ERK2) of 1000 to 10000 nM and a Kd (MEK4) of 1000 to 10000 nM. The Kd (MEK2) was 100 to 999 nM, the Kd (BRAF (V600E)) was 1000 to 10000 nM and the Kd (ERK1) was 1000 to 10000 nM.

Reference: US10844038B2, “1,2-dithiolane compounds useful in neuroprotection, autoimmune and cancer diseases and conditions” (SABILA BIOSCIENCES LLC, priority 2016, dated 2020)
